Source: patent publication US20240181000A1, “LGG-DERIVED PEPTIDES AND METHODS OF USE THEREOF” (Ohio State Innovation Foundation, priority 2021, published 2024)
No end group written: not given here.

How the values were obtained:
[1] = tested on: APEC; assay: Kinetic time-inhibition assay of synthesized peptides; assay type: cell-based, E. coli; conditions: 12 mM, 12 h
Method: Peptides were added to the APEC suspension in a 96-well plate, and plate was incubated in TECAN Sunrise™ absorbance microplate reader at 37° C. with OD600 measurement set at every 30 min for 12 hr. The sequences in FIG. 7 are […] (SEQ ID NO: 5), […] (SEQ ID NO: 18), […] (SEQ ID NO: 21), […] (SEQ ID NO: 26), and […] (SEQ ID NO: 32).
The five common highly abundant peptides in CFSs of both L. rhamnosus GG and B. lactis Bb12 ([…] (SEQ ID NO:5), […] (SEQ ID NO:18), […] (SEQ ID NO:21), […] (SEQ ID NO:26) and […] (SEQ ID NO:32)) were synthesized (GenScript, NJ, USA) and tested for anti-APEC activity by conducting kinetic time-inhibition assay as described previously. Briefly, peptides dissolved in dimethyl sulfoxide (DMSO) at 200 mM concentrations were added (12 mM; final concentration of 6% DMSO) to APEC suspension (10^5 CFU/mL; LB media) in a 96-well plate. The plate was then incubated in TECAN Sunrise™ absorbance microplate reader (NC, USA) at 37° C. with OD600 measurement set at every 30 mins for 12 h. Untreated APEC (0% DMSO) and APEC treated with 6% DMSO were included as controls. […] Three independent experiments were conducted.

[2] = tested on: APEC O78; assay: Agar-well diffusion assay; assay type: cell-based, E. coli; conditions: whole culture, 24 h
Method: Agar-well diffusion assay: To determine the inhibitory activity of commensal and probiotic bacteria against APEC, agar-well diffusion assay was conducted as described previously. Briefly, LB agar plate was spread with 100 μL of APEC O78 (10^7 CFU/mL) and 100 μL of fully grown stationary phase whole cultures (adjusted to OD600: 1) of commensal and probiotic bacteria were aliquoted into the wells bored in the agar plate. The plate was incubated at 37° C., and zone of inhibition was measured at 12 h and 24 h post-incubation. The inhibitory activity of L. rhamnosus GG and B. lactis Bb12 was also tested with different culture volumes (200 μL, 150 μL and 50 μL) and against other APEC serotypes as described above. Assay was also conducted with cell-free supernatants (CF Ss) of L. rhamnosus GG and B. lactis Bb12 and supernatant-free L. rhamnosus GG and B. lactis Bb12 itself. CFSs were prepared by centrifugation of whole cultures at 10,000×g for 10 min at 4° C. followed by filtration through 0.22 μm filter. The supernatant-free cultures were washed once and resuspended in PBS to check the activity of L. rhamnosus GG and B. lactis Bb12 itself. Two independent experiments were conducted. […]

[3] = tested on: APEC O78; assay type: cell-based, E. coli
Method: Anti-APEC activity determination: The anti-APEC activity of peptides was determined in LB broth following CLSI guidelines. Briefly, overnight grown APEC O78 was adjusted to 5×10^5 CFU/mL concentration in fresh LB media. One-hundred microliters of APEC suspension was aliquoted into the wells of the 96-well plate. Peptides were added to the wells at 6 mM and 12 mM concentrations and incubated at 37° C. in TECAN Sunrise™ absorbance microplate reader with kinetic absorbance measurement set at every 30 mins for 12 h. Sterile media and DMSO (solvent) were used as controls. The growth inhibitory activity of the peptides against APEC was calculated using the formula: (OD600 DMSO treated well−OD600 peptide treated well)/OD600 DMSO treated well×100%.
The minimum inhibitory concentration (MIC) was determined for selected peptides (P1, P2, P3, and P4) using similar assay as above. Peptides were added to the wells of the 96-well plate at 6 mM, 9 mM, 12 mM, 15 mM, and 18 mM concentrations. The peptide concentration at which there is no visible APEC growth (no OD increase) was determined as MIC. Two independent experiments were conducted.
Arginine and lysine substituted peptide analogues: The non-essential amino acid residues identified in each peptide were substituted with arginine/lysine to test whether these substitutions enhance the anti-APEC activity of peptides. The MICs of arginine and lysine substituted peptide analogues ([…] (SEQ ID NO:37), […] (SEQ ID NO:38), […] (SEQ ID NO:39), KDENK (SEQ ID NO:41), PDEKK (SEQ ID NO:42), KDEKK (SEQ ID NO:43), KHTAPK (SEQ ID NO:45), VKTAPK (SEQ ID NO:46), VHTKPK (SEQ ID NO:47), and KKTKPK (SEQ ID NO:48)) were determined as above and compared with original peptides.

[4] = tested on: Salmonella enterica subsp. enterica serovar Enteritidis (SE); assay type: cell-based; conditions: subsp. enterica serovar Enteritidis (SE)
Method: MIC was determined by selecting peptide concentration at which there is no increased growth (no increase in OD), given indication of no ST growth. An independent repeat experiment was conducted.
Heat and protease tolerance of peptides: P1, P2, and P4 were heated for 6 minutes at 86° C. or treated with protease proteinase K, 200 μg/mL at 50° C. for 30 minutes. After which, the treated and/or heated peptides at their respective MICs were evaluated in the inhibition assay with Salmonella. The protocol from above was repeated in the Tecan with the same controls.
To analyze the perceived efficacy of arginine and lysine substitutes reported in previous studies, specific amino acid residues in P1 and P2 were replaced with lysine or arginine to test if the alliterations enhanced anti-Salmonella (ST and SE) activity. The MICs of the arginine or lysine substituted peptides ([…] (SEQ ID NO:37), […] (SEQ ID NO:38), […] (SEQ ID NO:39), KDENK (SEQ ID NO:41), PDEKK (SEQ ID NO:42), KDEKK (SEQ ID NO:43), KHTAPK (SEQ ID NO:45)) were determined as described early. Two independent experiments were conducted to ensure accuracy.

[5] = tested on: multiple APEC serotypes; assay type: cell-based, E. coli
Method: Anti-APEC spectrum determination: Peptides (P1, P2, and P3) were tested against multiple APEC serotypes/strains to determine their spectrum of activity. Peptides were added at their MICs and the growth inhibitory activity of the peptides was determined as described above.

[6] = tested on: Intracellular APEC; assay: Effect of PN peptides on intracellular APEC; assay type: cell-based, E. coli
[7] = tested on: ST; assay: Minimal bactericidal concentration of PN-3 and PN-5; assay type: cell-based, Salmonella enterica
Method: FIGS. 30A-30C show the growth pattern of ST with and without peptide at 9-21 mM concentration. […] The plate was incubated in a TECAN Sunrise™ absorbance microplate reader at 37° C., measuring the OD 600 set at every 30 mins for 12 hrs., followed by bacterial enrichment to determine the minimal bactericidal concentration log CFU/mL.

[8] = tested on: Biofilm-embedded APEC; assay: Effect of PN peptides on biofilm embedded APEC; assay type: cell-based, E. coli; conditions: untreated 7.71 ± 0.72
[9] = tested on: APEC O78; assay type: cell-based, E. coli; conditions: 12 h
Method: FIGS. 13A-13C show the growth pattern of APEC O78 with and without peptide at 3-21 mM concentration. […] Various concentrations of peptides were added to the APEC suspension (5×10^5 CFU/mL) in a 96-well plate. The plate was incubated in a TECAN Sunrise™ absorbance microplate reader at 37° C., measuring the OD 600 set at every 30 mins for 12 hrs. After 12 hrs. incubation the bacteria were serially diluted and plated to count CFU/mL and calculated the inhibitory percentage using (Control-treated)/treated*100.
FIGS. 14A-14B show the growth pattern of APEC O78, treated with a combination of peptides at 3-21 mM concentration with respect to no peptide control. […] The two peptides were added together to the APEC suspension (5×10^5 CFU/mL) in a 96-well plate. The plate was incubated at 37° C. in a TECAN Sunrise™ absorbance microplate reader, measuring the OD 600 set at every 30 mins for 12 hrs. After incubation, the bacteria were serially diluted and plated to measure CFU/mL and calculate the inhibitory percentage using (Control-treated)/treated*100.

[10] = tested on: various serovars of Salmonella; assay: PN3 and PN5 on various serovars of Salmonella; assay type: cell-based; conditions: at MBC, 12 hrs
Method: Salmonella serovars (5×10^5 CFU/mL) were treated with peptides and grown at 37° C. for 12 hrs. In addition, bacterial inhibition percentage was calculated by comparing with no peptide control. […] Red: Bactericidal, Green: Non bactericidal.
FIGS. 32A-32B show the growth inhibition percentage of various serovars of Salmonella after treating with minimal inhibitory concentrations of peptides. […] Salmonella serovars (5×10^5 CFU/mL) were treated with peptides and grown at 37° C. for 12 hrs. In addition, bacterial inhibition percentage was calculated by comparing with no peptide control.

[11] = tested on: APEC O78; assay: Resistance after 13 passages at 0.75×MIC; assay type: cell-based, E. coli
Method: FIGS. 18A-18B show the growth of APEC O78 at MIC of the peptides after growing the bacteria for 13 passages with a sublethal concentration (0.75×MIC) of peptides. […] The OD 600 was measured at every 30 mins for 12 hrs.

[12] = tested on: various probiotic strains; assay type: cell-based; conditions: at MIC (PN3 12 mM, PN5 15 mM)
Method: FIGS. 16A-16B show the effect of the peptide on the growth of various probiotic strains after treating at their minimal inhibitory concentrations of 12 and 15 mM of PN3 and PN5, respectively. […] FIG. 16B the effect of 15 mM of PN5 peptide. The bacteria (5×10^5 CFU/mL) were treated with peptides and grown at 37° C. for 24 hrs in an anaerobic condition except for E. coli Nissel 1917 and E. coli G58-1, which has grown in aerobic conditions for 12 hrs. After incubation, serially dilute the culture and counted the CFU/mL Bacterial inhibition percentage was calculated by comparing with no peptide treated control.

Substance: AESSDTNLVNAKAA [PN-2]
- Inhibition of APEC growth [1]: slightly inhibitory

Substance: AFDNTDTSLDSTFKSA [PN-4]
- Inhibition of APEC growth [1]: completely inhibitory

Substance: Bifidobacterium longum
- Zone of inhibition [2]: 0.0 ± 0.0 mm

Substance: FSAVALSAVALSKPGHVNA [PN-1]
- Inhibition of APEC growth [1]: did not affect the APEC growth

Substance: KDEKK [KDEKK]
- MIC [3]: 12 mM

Substance: KDENK [KDENK]
- MIC [3]: 9 mM

Substance: KHTAPK [KHTAPK]
- MIC [3]: >18 mM

Substance: KKTKPK [KKTKPK]
- MIC [3]: >18 mM

Substance: NPRRQERR
- MIC [3]: 12 mM

Substance: NPRRQRRR
- MIC against SE [4]: >18 mM

Substance: NPRRRERR
- MIC [3]: 12 mM

Substance: NPSRRERR
- MIC [3]: 15 mM

Substance: PDEKK [PDEKK]
- MIC [3]: 9 mM
- MIC against SE [4]: 12 mM

Substance: VHTAPK [Peptide P3, VHTAPK]
- MIC [3]: 18 mM
- MIC50 [3]: 16.2 mM
- Growth inhibition against APEC serotypes [5]: 39.4-88.4%

Substance: VHTKPK [VHTKPK]
- MIC [3]: >18 mM

Substance: VKTAPK [VKTAPK]
- MIC [3]: >18 mM

Substance: VQAAQAGDTKPIEV [PN-3]
- Inhibition of APEC growth [1]: completely inhibitory
- Intracellular APEC ([6]; 0.25 X, untreated 2.98 ± 0.87): 2.64 ± 0.23 Log CFU/mL
- Intracellular APEC ([6]; 0.75 X): 2.59 ± 0.30 Log CFU/mL
- Intracellular APEC ([6]; 1 X): 2.50 ± 0.17 Log CFU/mL
- Intracellular APEC ([6]; 1.5 X): 0.00 ± 0.00 Log CFU/mL
- Minimal bactericidal concentration [7]: 21 mM
- Biofilm-embedded APEC [8]: 4.21 ± 0.48 Log CFU/mL
- Minimal inhibitory concentration [9]: 12 mM
- Bactericidal effect on eight Salmonella serotypes [10]: kill all the eight serotypes of Salmonella with no viable colony
- Bacterial resistance against the peptides [11]: did not cause bacterial resistance
- Growth of B. longum, B. adolescentis, and B. theoiotamicron [12]: promoted the growth
- Growth of BB12, E. coli Nissel 1917 and E. coli G58-1 [12]: inhibited the growth
- Growth of LGG [12]: unaffected

Substance: VTDTSGKAGTTKISNV [PN-5]
- Inhibition of APEC growth [1]: completely inhibitory
- Intracellular APEC ([6]; 0.25 X, untreated 2.98 ± 0.87): 2.34 ± 0.11 Log CFU/mL
- Intracellular APEC ([6]; 0.75 X): 2.30 ± 0.00 Log CFU/mL
- Intracellular APEC ([6]; 1 X): 0.00 ± 0.00 Log CFU/mL
- Intracellular APEC ([6]; 1.5 X): 0.00 ± 0.00 Log CFU/mL
- Minimal bactericidal concentration [7]: 21 mM
- Biofilm-embedded APEC [8]: 4.95 ± 0.07 Log CFU/mL
- Minimal inhibitory concentration [9]: 15 mM
- Bactericidal effect on eight Salmonella serotypes [10]: killed all serotypes except Saintpaul
- Bacterial resistance against the peptides [11]: did not cause bacterial resistance
- Growth of B. longum, B. adolescentis, and B. theoiotamicron [12]: promoted the growth
- Growth of BB12, E. coli Nissel 1917 and E. coli G58-1 [12]: inhibited the growth
- Growth of LGG [12]: slightly affected
